Measurements taken from publication PMC3083694, “Effects of Intermediates between Vitamins K2 and K3 on Mammalian DNA Polymerase Inhibition and Anti-Inflammatory Activity” (International Journal of Molecular Sciences, 2011).

What was measured:
Human DNA polymerase γ = target: T1, Human DNA polymerase γ (Homo sapiens, UniProt P54098); experiment: DNA polymerase activity assay, human pol γ; assay type: biochemical
T1 construct: made in house
T1 sequence (P54098 1-1239): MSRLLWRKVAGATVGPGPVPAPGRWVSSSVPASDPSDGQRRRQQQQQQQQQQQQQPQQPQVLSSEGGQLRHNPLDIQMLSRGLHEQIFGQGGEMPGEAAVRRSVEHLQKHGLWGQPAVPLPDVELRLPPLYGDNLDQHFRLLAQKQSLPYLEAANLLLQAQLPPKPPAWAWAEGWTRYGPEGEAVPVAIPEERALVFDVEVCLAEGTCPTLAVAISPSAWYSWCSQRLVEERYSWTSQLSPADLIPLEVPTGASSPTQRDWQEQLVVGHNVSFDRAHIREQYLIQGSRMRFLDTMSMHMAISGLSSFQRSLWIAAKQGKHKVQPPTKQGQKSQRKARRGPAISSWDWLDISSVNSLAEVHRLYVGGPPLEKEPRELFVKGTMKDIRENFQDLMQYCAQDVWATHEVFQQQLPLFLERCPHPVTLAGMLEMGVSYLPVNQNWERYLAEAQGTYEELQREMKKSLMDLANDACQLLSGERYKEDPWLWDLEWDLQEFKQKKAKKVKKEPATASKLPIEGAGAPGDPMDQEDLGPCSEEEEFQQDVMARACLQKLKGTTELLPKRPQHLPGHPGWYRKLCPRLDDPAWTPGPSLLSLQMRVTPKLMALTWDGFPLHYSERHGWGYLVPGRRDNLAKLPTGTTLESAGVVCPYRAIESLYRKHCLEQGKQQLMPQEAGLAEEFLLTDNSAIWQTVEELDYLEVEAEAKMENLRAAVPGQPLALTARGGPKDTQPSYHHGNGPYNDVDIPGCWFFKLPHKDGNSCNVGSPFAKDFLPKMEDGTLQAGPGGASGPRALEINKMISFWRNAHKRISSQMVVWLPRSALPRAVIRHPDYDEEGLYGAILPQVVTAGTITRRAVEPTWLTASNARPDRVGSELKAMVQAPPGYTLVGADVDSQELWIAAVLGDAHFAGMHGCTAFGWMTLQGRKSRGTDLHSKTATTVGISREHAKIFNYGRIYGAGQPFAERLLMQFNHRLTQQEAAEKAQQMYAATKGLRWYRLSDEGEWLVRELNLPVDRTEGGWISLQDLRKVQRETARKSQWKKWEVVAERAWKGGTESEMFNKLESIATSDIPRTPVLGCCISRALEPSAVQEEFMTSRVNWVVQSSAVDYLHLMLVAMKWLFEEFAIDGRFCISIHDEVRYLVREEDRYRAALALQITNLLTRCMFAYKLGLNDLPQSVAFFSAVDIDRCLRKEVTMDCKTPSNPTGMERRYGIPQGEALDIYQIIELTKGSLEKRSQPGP
Method: (§1) Pols from mammals, a fish (cherry salmon), an insect (fruit fly) and a plant (cauliflower) were purified, and prokaryotic pols and other DNA metabolic enzymes, such as T7 RNA polymerase, T4 polynucleotide kinase and bovine deoxyribonuclease I, were purchased as described in our previous report. The activities of all pols and other DNA metabolic enzymes were measured as described in previous reports.
The components of the pol assay were poly(dA)/oligo(dT)18 and dTTP as the DNA template-primer and 2′-deoxyribonucleoside 5′-triphosphate (dNTP) substrate, respectively. VK2, VK3, and their synthesized derivatives (i.e., MK-3, MK-2 and MK-1) were dissolved in dimethyl sulfoxide (DMSO) at various concentrations and sonicated for 30 s. The sonicated samples (4 μL) were mixed with 16 μL of each pol enzyme (final amount, 0.05 units) in 50 mM Tris-HCl (pH 7.5) containing 1 mM dithiothreitol, 50% glycerol and 0.1 mM EDTA, and kept at 0 °C for 10 min. These inhibitor–enzyme mixtures (8 μL) were added to 16 μL of each standard enzyme reaction mixture (50 mM Tris-HCl [pH 7.5], 1 mM dithiothreitol, 1 mM MgCl2, 15% glycerol, 10 μM poly(dA)/oligo(dT)18 and 10 μM [^3H]-dTTP), and incubation was carried out at 37 °C for 60 min, except for Taq pol, which was incubated at 74 °C for 60 min. Activity without the inhibitor was considered to be 100%, and the activity remaining at each concentration of inhibitor was determined relative to this value. One unit of pol activity was defined as the amount of enzyme that catalyzed the incorporation of 1 nmol dNTP (dTTP) into the synthetic DNA template-primer (poly(dA)/oligo(dT)18, A/T = 2/1) in 60 min at 37 °C under normal reaction conditions for each enzyme (scintillation counts: approximately 1 pmol of incorporated radioactive nucleotides = 100 cpm).

Human DNA polymerase δ = target: T2, Human DNA polymerase δ (Homo sapiens, UniProt P28340); experiment: DNA polymerase activity assay, human pol δ; assay type: biochemical; conditions: B-family pol; read-out: IC50 Value of MK-2, Human DNA polymerase δ
T2 construct: made in house
Method: as §1
(§2) The components of the pol assay were poly(dA)/oligo(dT)18 and dTTP as the DNA template-primer and 2′-deoxyribonucleoside 5′-triphosphate (dNTP) substrate, respectively. VK2, VK3, and their synthesized derivatives (i.e., MK-3, MK-2 and MK-1) were dissolved in dimethyl sulfoxide (DMSO) at various concentrations and sonicated for 30 s. The sonicated samples (4 μL) were mixed with 16 μL of each pol enzyme (final amount, 0.05 units) in 50 mM Tris-HCl (pH 7.5) containing 1 mM dithiothreitol, 50% glycerol and 0.1 mM EDTA, and kept at 0 °C for 10 min. […] Activity without the inhibitor was considered to be 100%, and the activity remaining at each concentration of inhibitor was determined relative to this value. […]

Human DNA polymerase ɛ = target: T3, Human DNA polymerase ɛ (Homo sapiens, UniProt Q07864); experiment: DNA polymerase activity assay, human pol ɛ; assay type: biochemical; conditions: B-family pol; read-out: IC50 Value of MK-2, Human DNA polymerase ɛ
T3 construct: made in house
T3 sequence (Q07864 whole entry): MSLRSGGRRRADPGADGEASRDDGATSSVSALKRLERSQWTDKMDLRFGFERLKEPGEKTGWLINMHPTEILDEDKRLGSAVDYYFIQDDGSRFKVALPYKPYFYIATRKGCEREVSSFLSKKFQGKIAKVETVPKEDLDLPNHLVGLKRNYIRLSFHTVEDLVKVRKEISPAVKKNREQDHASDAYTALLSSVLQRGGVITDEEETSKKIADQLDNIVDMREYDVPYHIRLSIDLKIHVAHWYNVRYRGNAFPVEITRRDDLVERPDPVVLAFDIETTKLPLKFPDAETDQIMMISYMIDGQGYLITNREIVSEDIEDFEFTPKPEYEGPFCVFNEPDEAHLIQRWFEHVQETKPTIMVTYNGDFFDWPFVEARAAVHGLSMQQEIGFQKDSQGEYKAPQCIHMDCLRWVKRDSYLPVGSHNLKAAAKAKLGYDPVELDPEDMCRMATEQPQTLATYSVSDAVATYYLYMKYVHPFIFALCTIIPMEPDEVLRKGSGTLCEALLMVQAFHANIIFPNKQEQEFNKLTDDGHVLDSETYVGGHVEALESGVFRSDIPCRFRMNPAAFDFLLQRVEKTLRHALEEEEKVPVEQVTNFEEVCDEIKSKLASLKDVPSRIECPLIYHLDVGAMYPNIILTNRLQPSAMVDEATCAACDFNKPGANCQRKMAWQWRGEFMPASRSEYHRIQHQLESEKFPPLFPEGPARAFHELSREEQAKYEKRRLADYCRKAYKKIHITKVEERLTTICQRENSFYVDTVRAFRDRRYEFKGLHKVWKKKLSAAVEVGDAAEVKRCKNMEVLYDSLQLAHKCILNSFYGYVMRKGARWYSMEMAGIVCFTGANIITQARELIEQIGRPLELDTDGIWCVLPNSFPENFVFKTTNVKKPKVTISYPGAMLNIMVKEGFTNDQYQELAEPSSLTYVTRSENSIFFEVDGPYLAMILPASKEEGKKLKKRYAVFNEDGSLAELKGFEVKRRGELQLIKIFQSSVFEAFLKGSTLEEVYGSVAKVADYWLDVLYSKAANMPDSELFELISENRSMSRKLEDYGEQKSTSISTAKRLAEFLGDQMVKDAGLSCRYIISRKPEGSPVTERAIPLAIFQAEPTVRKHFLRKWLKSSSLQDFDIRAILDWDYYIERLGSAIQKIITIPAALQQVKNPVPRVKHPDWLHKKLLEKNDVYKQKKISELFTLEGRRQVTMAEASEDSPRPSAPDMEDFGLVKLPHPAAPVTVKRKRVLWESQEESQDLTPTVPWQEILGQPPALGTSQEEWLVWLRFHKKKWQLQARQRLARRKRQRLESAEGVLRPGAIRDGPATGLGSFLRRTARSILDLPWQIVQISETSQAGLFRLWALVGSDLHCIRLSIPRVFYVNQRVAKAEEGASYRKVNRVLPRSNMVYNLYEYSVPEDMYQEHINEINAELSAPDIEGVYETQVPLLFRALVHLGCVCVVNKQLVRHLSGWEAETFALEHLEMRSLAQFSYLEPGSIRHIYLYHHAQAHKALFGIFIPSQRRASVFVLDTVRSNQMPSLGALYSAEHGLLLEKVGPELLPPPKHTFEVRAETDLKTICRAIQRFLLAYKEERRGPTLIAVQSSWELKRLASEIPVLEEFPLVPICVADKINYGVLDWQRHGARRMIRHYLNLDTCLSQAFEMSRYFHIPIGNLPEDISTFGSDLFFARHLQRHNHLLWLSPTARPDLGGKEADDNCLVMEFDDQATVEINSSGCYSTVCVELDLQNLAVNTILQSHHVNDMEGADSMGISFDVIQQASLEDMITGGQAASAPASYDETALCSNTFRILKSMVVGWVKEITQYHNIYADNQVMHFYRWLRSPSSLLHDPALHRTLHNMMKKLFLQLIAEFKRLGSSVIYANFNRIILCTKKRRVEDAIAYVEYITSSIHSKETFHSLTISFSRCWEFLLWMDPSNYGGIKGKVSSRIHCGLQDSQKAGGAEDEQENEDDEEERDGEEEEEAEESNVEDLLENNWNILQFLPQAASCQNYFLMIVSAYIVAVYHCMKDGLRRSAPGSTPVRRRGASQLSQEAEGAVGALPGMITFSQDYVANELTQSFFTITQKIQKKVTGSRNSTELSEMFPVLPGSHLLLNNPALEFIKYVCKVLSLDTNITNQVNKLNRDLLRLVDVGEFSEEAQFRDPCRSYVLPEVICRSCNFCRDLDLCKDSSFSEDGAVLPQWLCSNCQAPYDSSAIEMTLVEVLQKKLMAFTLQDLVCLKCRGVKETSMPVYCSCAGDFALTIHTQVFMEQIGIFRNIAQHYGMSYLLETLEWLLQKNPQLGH
Method: as §1, §2

[1] = target: Calf Terminal deoxynucleotidyl transferase (Bos taurus, UniProt P06526); experiment: DNA polymerase activity assay, calf TdT; assay type: biochemical; conditions: X-family pol; read-out: IC50 Value of MK-2, Calf Terminal deoxynucleotidyl transferase
Sequence of Calf Terminal deoxynucleotidyl transferase (P06526 whole entry): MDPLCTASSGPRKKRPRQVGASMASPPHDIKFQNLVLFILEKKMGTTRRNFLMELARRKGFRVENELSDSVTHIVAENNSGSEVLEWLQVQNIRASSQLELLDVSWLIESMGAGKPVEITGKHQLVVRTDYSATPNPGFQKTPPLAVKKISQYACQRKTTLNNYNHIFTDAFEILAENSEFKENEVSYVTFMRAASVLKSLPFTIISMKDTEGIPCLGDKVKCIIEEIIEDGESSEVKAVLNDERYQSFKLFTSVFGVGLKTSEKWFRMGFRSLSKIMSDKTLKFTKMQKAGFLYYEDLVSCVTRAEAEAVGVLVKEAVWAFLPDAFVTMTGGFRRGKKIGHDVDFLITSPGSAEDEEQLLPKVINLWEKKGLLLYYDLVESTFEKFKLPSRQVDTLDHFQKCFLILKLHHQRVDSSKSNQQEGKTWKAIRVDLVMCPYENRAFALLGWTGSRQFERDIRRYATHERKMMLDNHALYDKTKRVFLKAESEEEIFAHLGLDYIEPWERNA
Method: as §1, §2

[2] = target: Cherry salmon DNA polymerase δ (Oncorhynchus masou, UniProt Z9UCE0HTX2); experiment: DNA polymerase activity assay, cherry salmon pol δ; assay type: biochemical; conditions: fish pol; read-out: IC50 Value of MK-2, Cherry salmon DNA polymerase δ
Sequence of Cherry salmon DNA polymerase δ (Z9UCE0HTX2 1-856): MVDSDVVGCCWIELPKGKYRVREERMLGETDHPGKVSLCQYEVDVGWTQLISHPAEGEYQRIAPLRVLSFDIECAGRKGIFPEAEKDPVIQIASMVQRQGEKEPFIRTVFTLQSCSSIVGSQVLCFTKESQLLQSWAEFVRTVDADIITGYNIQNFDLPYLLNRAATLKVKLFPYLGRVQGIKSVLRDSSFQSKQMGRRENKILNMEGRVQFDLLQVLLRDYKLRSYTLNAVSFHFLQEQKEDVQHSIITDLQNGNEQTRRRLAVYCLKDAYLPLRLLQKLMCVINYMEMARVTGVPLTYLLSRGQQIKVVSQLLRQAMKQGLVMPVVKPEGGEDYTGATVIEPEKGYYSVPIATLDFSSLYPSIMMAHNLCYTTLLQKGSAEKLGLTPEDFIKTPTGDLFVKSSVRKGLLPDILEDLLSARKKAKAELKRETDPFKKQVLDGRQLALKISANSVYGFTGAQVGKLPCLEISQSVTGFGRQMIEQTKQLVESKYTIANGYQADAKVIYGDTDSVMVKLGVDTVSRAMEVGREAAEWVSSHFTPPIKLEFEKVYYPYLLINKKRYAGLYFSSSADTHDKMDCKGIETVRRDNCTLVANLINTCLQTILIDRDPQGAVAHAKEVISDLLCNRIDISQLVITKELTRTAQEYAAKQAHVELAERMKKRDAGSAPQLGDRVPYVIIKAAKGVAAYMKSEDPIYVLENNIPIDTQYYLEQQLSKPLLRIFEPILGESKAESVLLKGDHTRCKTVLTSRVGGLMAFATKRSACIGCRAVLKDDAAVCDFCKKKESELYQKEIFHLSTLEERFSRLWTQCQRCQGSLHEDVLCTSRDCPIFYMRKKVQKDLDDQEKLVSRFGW
Method: as §1, §2

T4 DNA polymerase = target: T4, T4 DNA polymerase (Enterobacteria phage T4, UniProt P04415); experiment: DNA polymerase activity assay, T4 pol; assay type: biochemical; conditions: prokaryotic pol; read-out: IC50 Value of MK-2, T4 DNA polymerase
T4 construct: purchased
Method: as §1, §2

T7 RNA polymerase = target: T5, T7 RNA polymerase (Escherichia phage T7, UniProt P00573); experiment: DNA metabolic enzyme assay, T7 RNA polymerase; assay type: biochemical; conditions: other DNA metabolic enzyme; read-out: IC50 Value of MK-2, T7 RNA polymerase
T5 construct: purchased
T5 sequence (P00573 whole entry): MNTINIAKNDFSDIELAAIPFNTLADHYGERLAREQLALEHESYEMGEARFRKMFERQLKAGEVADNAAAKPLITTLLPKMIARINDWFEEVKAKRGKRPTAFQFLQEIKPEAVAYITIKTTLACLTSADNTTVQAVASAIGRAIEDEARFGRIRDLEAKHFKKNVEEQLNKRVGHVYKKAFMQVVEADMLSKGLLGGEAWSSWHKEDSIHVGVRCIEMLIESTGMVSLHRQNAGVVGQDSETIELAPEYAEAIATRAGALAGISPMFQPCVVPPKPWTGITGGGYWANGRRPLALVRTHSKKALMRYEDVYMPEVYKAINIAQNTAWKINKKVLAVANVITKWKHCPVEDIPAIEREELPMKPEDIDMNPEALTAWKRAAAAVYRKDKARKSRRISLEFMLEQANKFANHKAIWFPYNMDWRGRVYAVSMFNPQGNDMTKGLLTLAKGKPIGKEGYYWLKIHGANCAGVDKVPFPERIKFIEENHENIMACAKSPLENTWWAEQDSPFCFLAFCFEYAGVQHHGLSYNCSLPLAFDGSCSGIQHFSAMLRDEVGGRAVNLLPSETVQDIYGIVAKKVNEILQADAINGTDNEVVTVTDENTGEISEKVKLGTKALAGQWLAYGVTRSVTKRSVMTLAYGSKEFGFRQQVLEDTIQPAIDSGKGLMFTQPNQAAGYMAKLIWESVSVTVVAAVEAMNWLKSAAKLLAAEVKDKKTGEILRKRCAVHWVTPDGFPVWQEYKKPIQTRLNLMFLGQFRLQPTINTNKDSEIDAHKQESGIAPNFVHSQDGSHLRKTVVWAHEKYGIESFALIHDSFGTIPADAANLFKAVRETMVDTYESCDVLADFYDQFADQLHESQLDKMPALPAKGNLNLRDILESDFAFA
Method: as §1

[3] = target: T6, Bovine deoxyribonuclease I (Bos taurus, UniProt P00639); experiment: DNA metabolic enzyme assay, bovine deoxyribonuclease I; assay type: biochemical; conditions: other DNA metabolic enzyme; read-out: IC50 Value of MK-2, Bovine deoxyribonuclease I
T6 construct: purchased
T6 sequence (P00639 23-282): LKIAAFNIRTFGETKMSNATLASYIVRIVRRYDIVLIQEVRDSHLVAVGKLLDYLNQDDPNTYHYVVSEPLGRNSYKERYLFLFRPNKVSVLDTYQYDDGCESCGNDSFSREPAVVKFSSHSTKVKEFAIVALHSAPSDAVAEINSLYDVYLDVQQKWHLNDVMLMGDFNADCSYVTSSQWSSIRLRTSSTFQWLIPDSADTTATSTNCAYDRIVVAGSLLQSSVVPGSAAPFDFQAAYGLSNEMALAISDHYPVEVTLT
Method: as §1

[4] = target: B-family pols (mammalian); experiment: DNA polymerase activity assay, mammalian B-family pols; assay type: biochemical, mammals; conditions: range over mammalian B-family pols α, δ, ɛ; read-out: 50% inhibition of the B family of pols
Method: as §1, §2

[5] = target: X-family pols (mammalian); experiment: DNA polymerase activity assay, mammalian X-family pols; assay type: biochemical, mammals; conditions: range over mammalian X-family pols β, λ, TdT; read-out: 50% inhibition of the X family of pols
Method: as §1, §2

[6] = target: Y-family pols (mammalian); experiment: DNA polymerase activity assay, mammalian Y-family pols; assay type: biochemical, mammals; conditions: range over mammalian Y-family pols η, ι, κ; read-out: 50% inhibition of the Y family of pols
Method: as §1, §2

Row | Inhibitory effect on human pol γ activity (Human DNA polymerase γ; 50 μM of each compound, Figure 2) | Compound | IC50 (Human DNA polymerase γ; A-family pol, poly(dA)/oligo(dT)18 and dTTP, read-out: IC50 Value of MK-2, Human DNA polymerase γ) [µM] | IC50 (Human DNA polymerase δ) [µM] | IC50 (Human DNA polymerase ɛ) [µM] | IC50 [1] [µM] | IC50 [2] [µM] | IC50 (T4 DNA polymerase) [µM] | IC50 (T7 RNA polymerase) [µM] | IC50 [3] [µM] | IC50 [4] [µM] | IC50 [5] [µM] | IC50 [6] [µM]
1 |  | CC(C)=CCC/C(C)=C/CC1=C(C)C(=O)c2ccccc2C1=O [MK-2] | 68.8 ± 3.4 | 29.1 ± 1.8 | 28.2 ± 1.6 | 29.4 ± 1.7 | 32.5 ± 1.9 | > 200 | > 200 | > 200 | 27.6 to 29.1 | 24.6 to 31 | 35.3 to 39
2 | had no effect on pol activity | CC(C)=CCC/C(C)=C/CC/C(C)=C/CC/C(C)=C/CC1=C(C)C(=O)c2ccccc2C1=O [MK-4, menaquinone 4, reference compound] |  |  |  |  |  |  |  |  |  |  | 
